These results are taken from patent US20190256994A1, “Electrochemical Deposition of Elements in Aqueous Media” (LumiShield Technologies Incorporated, priority 2016, published 2019).

The format of data set [1] is physicochemical. The conditions noted are these: 1 M aluminum aqueous solution.
The conditions of data set [2]: acid of the ligand; cited from earlier work.

Compound `[Cl][Al]([Cl])[Cl]` [AlCl3, Aluminum chloride] displayed a pH in data set [1] of 2.04.
Regarding `O=S(=O)(O)C(F)(F)F` [Triflate (TfO), Triflate], the pKa in water in data set [2] is on record as -3.43.
Regarding `O=S(=O)(NS(=O)(=O)C(F)(F)F)C(F)(F)F` [bis(trifluoromethane) sulfonamide(Tf2N), bis(trifluoromethane) sulfonamide], in data set [2], the pKa in water result is given as “Too negative to measure”.
For “Methanesulfonate [Methanesulfonate (MSO)]”, in data set [2], the pKa in water is given as -1.61.
In the case of “Trifluoroacetate [Trifluoroacetate (TFA)]”, in data set [2], the pKa in water is reported as 0.52.
For the compound “p-Toluenesulfonate [p-Toluenesulfonate (p-TSA)]”, the pKa in water in data set [2] is on record as -2.14.
